The source made the active and inactive calls. No rule for the calls is given here.
System: CCRIS mutagenicity, Ames/micronucleus/aberration tests
Assay: CCRIS mutagenicity studies
Conditions: Test System: AMES SALMONELLA TYPHIMURIUM
[1] = Strain/Indicator: TA97, Metabolic Activation: NONE, Method: PREINCUBATION
[2] = Strain/Indicator: TA98, Metabolic Activation: RAT, LIVER, S-9, AROCLOR 1254 (10%), Method: PREINCUBATION
[3] = Strain/Indicator: TA98, Metabolic Activation: RAT, LIVER, S-9, AROCLOR 1254 (30%), Method: PREINCUBATION
[4] = Strain/Indicator: TA100, Metabolic Activation: NONE, Method: PREINCUBATION
[5] = Strain/Indicator: TA100, Metabolic Activation: RAT, LIVER, S-9, AROCLOR 1254 (10%), Method: PREINCUBATION
[6] = Strain/Indicator: TA100, Metabolic Activation: RAT, LIVER, S-9, AROCLOR 1254 (30%), Method: PREINCUBATION
[7] = Strain/Indicator: TA1535, Metabolic Activation: NONE, Method: PREINCUBATION
[8] = Strain/Indicator: TA98, Metabolic Activation: NONE, Method: PREINCUBATION
[9] = Strain/Indicator: TA100, Metabolic Activation: NONE, Method: STANDARD PLATE
[10] = Strain/Indicator: TA1535, Metabolic Activation: NONE, Method: STANDARD PLATE

SMILES: Cc1ccc(S(=O)(=O)NC2CCCCC2)cc1
- mutagenic call (Strain/Indicator: TA97, Metabolic Activation: HAMSTER, LIVER, S-9, AROCLOR 1254 (10 OR 30%), Method: PREINCUBATION): inactive; negative
- mutagenic call [1]: inactive; negative
- mutagenic call (Strain/Indicator: TA97, Metabolic Activation: RAT, LIVER, S-9, AROCLOR 1254 (10 OR 30%), Method: PREINCUBATION): inactive; negative
- mutagenic call (Strain/Indicator: TA98, Metabolic Activation: HAMSTER, LIVER, S-9, AROCLOR 1254 (10 OR 30%), Method: PREINCUBATION): inactive; negative
- mutagenic call [2]: inactive; negative
- mutagenic call [3]: inactive; negative
- mutagenic call (Strain/Indicator: TA100, Metabolic Activation: HAMSTER, LIVER, S-9, AROCLOR 1254 (10 OR 30%), Method: PREINCUBATION): inactive; negative
- mutagenic call [4]: inactive; negative
- mutagenic call [5]: inactive; negative
- mutagenic call [6]: inactive; negative
- mutagenic call (Strain/Indicator: TA1535, Metabolic Activation: HAMSTER, LIVER, S-9, AROCLOR 1254 (10 OR 30%), Method: PREINCUBATION): inactive; negative
- mutagenic call [7]: inactive; negative
- mutagenic call (Strain/Indicator: TA1535, Metabolic Activation: RAT, LIVER, S-9, AROCLOR 1254 (10 OR 30%), Method: PREINCUBATION): inactive; negative
- mutagenic call (Strain/Indicator: TA1537, Metabolic Activation: HAMSTER, LIVER, S-9, AROCLOR 1254 (30%), Method: PREINCUBATION): inactive; negative
- mutagenic call (Strain/Indicator: TA1537, Metabolic Activation: NONE, Method: PREINCUBATION): inactive; negative
- mutagenic call (Strain/Indicator: TA1537, Metabolic Activation: RAT, LIVER, S-9, AROCLOR 1254 (30%), Method: PREINCUBATION): inactive; negative

SMILES: Cn1c(N=[N+]=[N-])nc2ncc(-c3ccccc3)cc21
- mutagenic call (Strain/Indicator: TA98(1,8-DNP6), Metabolic Activation: NONE, Method: PREINCUBATION): active; positive
- mutagenic call (Strain/Indicator: TA98(NR), Metabolic Activation: NONE, Method: PREINCUBATION): active; positive
- mutagenic call [8]: active; positive
- mutagenic call (Strain/Indicator: YG1024, Metabolic Activation: NONE, Method: PREINCUBATION): active; positive

SMILES: O=Cc1ccc(Cl)c(Cl)c1
- mutagenic call (Strain/Indicator: TA97, Metabolic Activation: HAMSTER, LIVER, S-9, AROCLOR 1254 (10%), Method: PREINCUBATION): inactive; negative
- mutagenic call (Strain/Indicator: TA97, Metabolic Activation: HAMSTER, LIVER, S-9, AROCLOR 1254 (30%), Method: PREINCUBATION): inactive; negative
- mutagenic call [1]: inactive; negative
- mutagenic call (Strain/Indicator: TA97, Metabolic Activation: RAT, LIVER, S-9, AROCLOR 1254 (10%), Method: PREINCUBATION): inactive; negative
- mutagenic call (Strain/Indicator: TA97, Metabolic Activation: RAT, LIVER, S-9, AROCLOR 1254 (30%), Method: PREINCUBATION): inactive; negative
- mutagenic call (Strain/Indicator: TA98, Metabolic Activation: HAMSTER, LIVER, S-9, AROCLOR 1254 (10%), Method: PREINCUBATION): inactive; negative
- mutagenic call (Strain/Indicator: TA98, Metabolic Activation: HAMSTER, LIVER, S-9, AROCLOR 1254 (30%), Method: PREINCUBATION): inactive; negative
- mutagenic call [8]: inactive; negative
- mutagenic call [2]: inactive; negative
- mutagenic call [3]: inactive; negative
- mutagenic call (Strain/Indicator: TA100, Metabolic Activation: HAMSTER, LIVER, S-9, AROCLOR 1254 (10%), Method: PREINCUBATION): inactive; negative
- mutagenic call (Strain/Indicator: TA100, Metabolic Activation: HAMSTER, LIVER, S-9, AROCLOR 1254 (30%), Method: PREINCUBATION): inactive; negative
- mutagenic call [4]: inactive; negative
- mutagenic call [5]: inactive; negative
- mutagenic call [6]: inactive; negative
- mutagenic call (Strain/Indicator: TA104, Metabolic Activation: HAMSTER, LIVER, S-9, AROCLOR 1254 (10%), Method: PREINCUBATION): inactive; negative
- mutagenic call (Strain/Indicator: TA104, Metabolic Activation: HAMSTER, LIVER, S-9, AROCLOR 1254 (30%), Method: PREINCUBATION): inactive; negative
- mutagenic call (Strain/Indicator: TA104, Metabolic Activation: NONE, Method: PREINCUBATION): inactive; negative
- mutagenic call (Strain/Indicator: TA104, Metabolic Activation: RAT, LIVER, S-9, AROCLOR 1254 (10%), Method: PREINCUBATION): inactive; negative
- mutagenic call (Strain/Indicator: TA104, Metabolic Activation: RAT, LIVER, S-9, AROCLOR 1254 (30%), Method: PREINCUBATION): inactive; negative
- mutagenic call (Strain/Indicator: TA1535, Metabolic Activation: HAMSTER, LIVER, S-9, AROCLOR 1254 (10%), Method: PREINCUBATION): inactive; negative
- mutagenic call (Strain/Indicator: TA1535, Metabolic Activation: HAMSTER, LIVER, S-9, AROCLOR 1254 (30%), Method: PREINCUBATION): inactive; negative
- mutagenic call [7]: inactive; negative
- mutagenic call (Strain/Indicator: TA1535, Metabolic Activation: RAT, LIVER, S-9, AROCLOR 1254 (10%), Method: PREINCUBATION): inactive; negative
- mutagenic call (Strain/Indicator: TA1535, Metabolic Activation: RAT, LIVER, S-9, AROCLOR 1254 (30%), Method: PREINCUBATION): inactive; negative

SMILES: BrCC(Br)CBr
- mutagenic call (Strain/Indicator: TA100, Metabolic Activation: RAT, LIVER, MICROSOMES, PHENOBARBITAL, NADPH COFACTORS, Method: STANDARD PLATE): active; positive
- mutagenic call (Strain/Indicator: TA100, Metabolic Activation: RAT, LIVER, MICROSOMES, PHENOBARBITAL, Method: STANDARD PLATE): inactive; negative

SMILES: c1cc[c]([Sn]([c]2ccccc2)([c]2ccccc2)[c]2ccccc2)cc1
- mutagenic call (Strain/Indicator: TA98, Metabolic Activation: NONE, Method: SUSPENSION/PLATE): inactive; negative
- mutagenic call (Strain/Indicator: TA100, Metabolic Activation: NONE, Method: SUSPENSION/PLATE): inactive; negative

SMILES: Cc1ccc(CC2CO2)cc1 (configuration not stated)
- mutagenic call [4]: active; positive
- mutagenic call [9]: active; positive
- mutagenic call [7]: active; positive
- mutagenic call [10]: active; positive

SMILES: Oc1ccc2cccnc2c1
- mutagenic call [9]: inactive; negative
- mutagenic call (Strain/Indicator: TA100, Metabolic Activation: RAT, LIVER, S-9, AROCLOR 1254 (10% OR 20%), Method: STANDARD PLATE): inactive; negative

SMILES: COC(=O)/C(C#N)=C/c1ccccc1Br
- mutagenic call [10]: inactive; negative
- mutagenic call (Strain/Indicator: TA1535, Metabolic Activation: RAT, LIVER, S-9, AROCLOR 1254, Method: STANDARD PLATE): inactive; negative

— PubChem BioAssay AID1259407 (Chemical Carcinogenesis Research Information System (CCRIS), 2018)
